Literature values as cited in patent US20040067918A1, “Combination of an aldosterone receptor antagonist and nicotinic acid or a nicotinic acid derivative” (priority 2002, published 2004).

Conditions: severe heart failure patients on standard therapy, relative to placebo-treated subjects

Structure (SMILES): CC(=O)SC1CC2=CC(=O)CCC2(C)C2CCC3(C)C(CCC34CCC(=O)O4)C12 (stereo not drawn) [spironolactone, 17-hydroxy-7α-mercapto-3-oxo-17α-pregn-4-ene-21-carboxylic acid γ-lactone acetate]
- incidence of hospitalization: statistically significant reduction
- mortality: statistically significant reduction
